Experiment: xn = mol fraction of the nth substance listed
Conditions: 101 kPa

CC(CC(C)(C)C)CP(=O)(O)CC(C)CC(C)(C)C (configuration not stated) + ClC(Cl)(Cl)Cl
298.15 K
Conditions	viscosity [mPa·s]
x1 = 0.0063	0.961
x1 = 0.0131	1.04
x1 = 0.0159	1.076
x2 = 0.1192	98.3
x2 = 0.201	83.19
x2 = 0.3155	66.36
x2 = 0.5037	36.06
x2 = 0.6763	19.27
x2 = 0.7689	12.88
x2 = 0.7808	11.73
x2 = 0.8099	9.498
x2 = 0.86	5.932
x2 = 0.8741	4.951
x2 = 0.9286	2.263
x2 = 0.9325	2.124
x2 = 0.9717	1.255

CC(CC(C)(C)C)CP(=O)(O)CC(C)CC(C)(C)C (configuration not stated) + ClC(Cl)Cl
298.15 K
Conditions	viscosity [mPa·s]
x1 = 0.0053	0.568
x1 = 0.0095	0.615
x1 = 0.011	0.638
x2 = 0.1271	90.02
x2 = 0.2117	75.09
x2 = 0.3912	50.44
x2 = 0.5499	30.02
x2 = 0.7028	11.91
x2 = 0.7739	6.921
x2 = 0.8002	5.613
x2 = 0.8091	5.202
x2 = 0.8378	3.942
x2 = 0.8852	2.458
x2 = 0.8924	2.301
x2 = 0.9394	1.35
x2 = 0.9426	1.28
x2 = 0.9762	0.818

CC(C)CCO + ClCCCl
viscosity [mPa·s]
Conditions	x1 = 0.1272	x1 = 0.2201	x1 = 0.3264	x1 = 0.4302	x1 = 0.5765	x1 = 0.6639	x1 = 0.8049	x1 = 0.888
303.15 K	0.743	0.797	0.9054	1.029	1.302	1.532	2.081	2.51
313.15 K	0.6478	0.6865	0.7649	0.8579	1.065	1.23	1.619	1.91
323.15 K	0.5786	0.603	0.665	0.7365	0.8917	1.015	1.309	1.507

CC(CC(C)(C)C)CP(=O)(O)CC(C)CC(C)(C)C (configuration not stated) + ClCCCl
298.15 K
Conditions	viscosity [mPa·s]
x1 = 0.0052	0.825
x1 = 0.0094	0.891
x1 = 0.0107	0.931
x2 = 0.0747	93.3
x2 = 0.1457	79.06
x2 = 0.2376	61.57
x2 = 0.3715	42.12
x2 = 0.568	20.09
x2 = 0.7166	9.021
x2 = 0.8017	5.212
x2 = 0.8105	4.99
x2 = 0.8887	2.678
x2 = 0.8942	2.603
x2 = 0.9417	1.597
x2 = 0.9439	1.578
x2 = 0.9767	1.087

CCOCCO + NC1CCCCC1
308.15 K
Conditions	viscosity [mPa·s]
x1 = 0.1163	1.345
x1 = 0.2284	1.366
x1 = 0.3366	1.391
x1 = 0.4411	1.419
x1 = 0.5421	1.437
x1 = 0.6398	1.457
x1 = 0.7342	1.459
x1 = 0.8257	1.455
x1 = 0.9142	1.45

CC(C)CCO + NC=O
298.1 K
Conditions	viscosity [mPa·s]
x2 = 0.0932	3.579
x2 = 0.1809	3.571
x2 = 0.2579	3.687
x2 = 0.3292	3.799
x2 = 0.4564	3.993
x2 = 0.5661	4.174
x2 = 0.6617	4.273
x2 = 0.7463	4.252
x2 = 0.8205	4.071
x2 = 0.8871	3.8
x2 = 0.9462	3.567

CCOCCO + NC=O
Conditions	viscosity [mPa·s]
303 K, x2 = 0.1539	2.222
303 K, x2 = 0.3334	2.676
303 K, x2 = 0.4617	2.99
303 K, x2 = 0.5714	3.203
303 K, x2 = 0.6669	3.477
303 K, x2 = 0.7501	3.576
303 K, x2 = 0.8235	3.446
303 K, x2 = 0.8889	3.199
303 K, x2 = 0.9474	3.008
303.15 K, x2 = 0.8063	3.495
313 K, x2 = 0.1539	1.769
313 K, x2 = 0.3334	2.075
313 K, x2 = 0.4617	2.139
313 K, x2 = 0.5714	2.481
313 K, x2 = 0.6669	2.647
313 K, x2 = 0.7501	2.752
313 K, x2 = 0.8235	2.588
313 K, x2 = 0.8889	2.513
323.15 K, x2 = 0.2009	1.415

CCOCCO + NCCO
viscosity [mPa·s]
Conditions	293.15 K	298.15 K	303.15 K	308.15 K	313.15 K	318.15 K	323.15 K
x2 = 0.141	2.898	2.544	2.246	1.998	1.786	1.605	1.449
x2 = 0.387	5.417	4.594	3.935	3.401	2.963	2.6	2.297
x2 = 0.596	9.217	7.588	6.312	5.319	4.527	3.89	3.371
x2 = 0.775	14.17	11.37	9.259	7.642	6.388	5.402	4.614
x2 = 0.93	20.26	15.94	12.77	10.37	8.539	7.122	6.005
